Data set [1] in a line: Chromatographic capacity factor k' by reversed-phase column chromatography (relative lipophilicity). Format: physicochemical. The note with it: Nova-PAK CN HP reversed-phase column; methanol-0.1% phosphoric acid (1:20 v/v) with 10^-3 M triethylamine. From the text: The capacity factor k' of a solute is defined as: k'=(tr -t0)/t0 where tr is the retention time of the solute and t0 is the elution time of the solvent.

Data set [2] in a line: Hydrolysis in aqueous buffer solutions (HPLC). Format: physicochemical. Here is the method: […] The initial concentration of the derivatives was in the range 10^-5 -10^-3 M. At various times an aliquot of the solutions was withdrawn and analyzed by HPLC for remaining (intact) derivative as well as for TRH. For the plasma solutions the aliquot (250 μl) withdrawn was added to 500 μl of a 2% solution of zinc sulphate in methanol-water (1:1 v/v) in order to deproteinize the plasma. After mixing and centrifugation for 3 min at 13,000 rpm, 20 μl of the clear supernatant was analyzed by HPLC as described above. The reaction conditions used for the studies with the pyroglutamyl aminopeptidase enzyme were identical to those previously described by Bundgaard & Moss (1989).
(§1) An HPLC method was used for the determination of TRH and its derivatives. […] For the determination of TRH formed upon hydrolysis of the various derivatives a mobile phase system consisting of acetonitrile-0.1% phosphoric acid (1:20 v/v) containing […] triethylamine was used. The flow rate was 1.5 ml min and the column effluent was monitored at 215 nm. Quantitation of the compounds was done by measuring the peak heights in relation to those of standards chromatographed under the same conditions.

Data set [3] addresses T1, pyroglutamyl aminopeptidase (PAPase I) (Bos taurus, UniProt A0ABI0NU39).
T1 sequence (A0ABI0NU39 1-214): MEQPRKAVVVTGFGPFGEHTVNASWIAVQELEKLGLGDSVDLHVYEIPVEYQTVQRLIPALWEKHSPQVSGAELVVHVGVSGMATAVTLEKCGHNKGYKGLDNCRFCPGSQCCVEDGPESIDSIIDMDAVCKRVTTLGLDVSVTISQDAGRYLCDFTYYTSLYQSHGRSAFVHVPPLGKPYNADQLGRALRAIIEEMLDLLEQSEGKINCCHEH
In words: Degradation in buffer pH 7.4 containing pyroglutamyl aminopeptidase. The conditions noted are these: for half-life: calf. Here is the method: (§2) Solutions of various compounds of formula I in aqueous buffer solutions or 80% human plasma solutions as well as in a buffer solution (pH 7.4) containing pyroglutamyl aminopeptidase (a calf liver preparation obtained from Boehringer, Mannheim, F.R.G.) were kept at 37° C. The initial concentration of the derivatives was in the range 10^-5 -10^-3 M. At various times an aliquot of the solutions was withdrawn and analyzed by HPLC for remaining (intact) derivative as well as for TRH. For the plasma solutions the aliquot (250 μl) withdrawn was added to 500 μl of a 2% solution of zinc sulphate in methanol-water (1:1 v/v) in order to deproteinize the plasma. After mixing and centrifugation for 3 min at 13,000 rpm, 20 μl of the clear supernatant was analyzed by HPLC as described above. The reaction conditions used for the studies with the pyroglutamyl aminopeptidase enzyme were identical to those previously described by Bundgaard & Moss (1989).
as §1

The next data set is described as follows: in vitro. The note with it: for half-life: human, plasma. Here is the method:
as §2, §1
For the consideration of the derivatives as prodrugs of TRH a crucial point is evidently their degradation pathways. Ideally, the compounds should be hydrolyzed in plasma at the imidazole-protected moiety, releasing TRH in quantitative amounts.
The reactions taking place in plasma can be illustrated as shown in Scheme 1.

The nature of data set [4]: Apparent partition coefficient between 1-octanol and phosphate buffer pH 7.4. The note with it: for logD: 1-octanol/0.02 M phosphate buffer pH 7.4, pH 7.4.
Method: (§3) The lipophilicity of the derivatives of the present invention and of TRH was assessed by measuring the apparent partition coefficients (P) of the compounds between 1-octanol and 0.02M phosphate buffer of pH 7.4.
Another data set in a line: physchem. The note with it: pH 7.4.
For data set [5] the following is noted: rat, in vivo, iv; cited from earlier work.
For data set [6] the following is noted: in vivo, iv; cited from earlier work.
Data set [7] is described as follows: Percutaneous absorption, in vitro diffusion through excised human skin (Franz cells). The conditions noted are these: for steady-state flux: 5% prodrug in aqueous solution (pH 6.0).
Method: The feasibility of achieving transdermal delivery of TRH via the prodrugs ot the present invention was evaluated by diffusion experiments in vitro using human skin samples.
Whole abdominal human skin obtained under autopsy was used. The skin was stored at -18° C. and was allowed to thaw gradually at room temperature before use. All subcutaneous fat was removed and the skin cut into pieces. […] The dermal side of the skin was exposed to the receptor medium (5 ml of 0.05M isotonic phosphate buffer solution of pH 7.2) which was stirred magnetically and kept at a constant temperature of 37° C. with a circulating water bath.
The compounds were applied as 5% w/v solutions in 0.05M phosphate buffer (final pH being 6.0) or propylene glycol (100 or 200 μl). At appropriate intervals samples of 1 ml were removed from the receptor phase and replaced with fresh buffer. The samples were immediately analyzed for TRH and prodrug content by HPLC as described above. The permeation studies of each compound in each vehicle were done in triplicate.

Like-named read-outs stand apart in the source and are kept apart here. Where only a bound is given, the exact number is not on record here.

Method for physchem: as §3

In the case of `CCOC(=O)n1cnc(C[C@H](NC(=O)[C@@H]2CCC(=O)N2)C(=O)N2CCC[C@H]2C(N)=O)c1` [C2 H5], in data set [1], the “log k'” value was 0.85. Also, the “Half-lives at 37° C., pH 7.4 buffer” value in [2] is 14.2 h. The half-life (usually the time in which the quantity being followed falls by half) is 23 min in data set [3] and 228 min in “in vitro”. The logD (in general, lipophilicity at a set pH, counting ionised and neutral species) in [4] was -1.3.
`NC(=O)[C@@H]1CCCN1C(=O)[C@H](Cc1cn(C(=O)OC2CCCCC2)cn1)NC(=O)[C@@H]1CCC(=O)N1` [C6 H10 (cyclohexyl)]: the “log k'” value in [1] is given as 1.28. The “Half-lives at 37° C., pH 7.4 buffer” value in data set [2] is given as 36.8 h. Also, the half-life in data set [3] was 22 min; in “in vitro” it was 384 min. In data set [4], the logD came out at 0.6.
Consider `NC(=O)[C@@H]1CCCN1C(=O)[C@H](Cc1cn(C(=O)OCc2ccccc2)cn1)NC(=O)[C@@H]1CCC(=O)N1` [CH2 C6 H5], for which the “Half-lives at 37° C., pH 7.4 buffer” value in data set [2] is reported as 9.0 h. In data set [3], this compound showed a half-life of 7 min. Further, the logD in data set [4] was -0.11.
For the compound `NC(=O)[C@@H]1CCCN1C(=O)[C@H](Cc1cn(C(=O)OCCCl)cn1)NC(=O)[C@@H]1CCC(=O)N1` [CH2 CH2 Cl], the logD in [4] was -1.1.
`CCCCC(CC)COC(=O)n1cnc(C[C@H](NC(=O)[C@@H]2CCC(=O)N2)C(=O)N2CCC[C@H]2C(N)=O)c1` (stereo partly shown) [CH2 CH(C2 H5)C4 H9]: the logD in data set [4] came to 1.82.
In the case of `CC(C)COC(=O)n1cnc(C[C@H](NC(=O)[C@@H]2CCC(=O)N2)C(=O)N2CCC[C@H]2C(N)=O)c1` [CH2 CH(CH3)2], in data set [1], the “log k'” value worked out at 1.09. Besides, in data set [2], the “Half-lives at 37° C., pH 7.4 buffer” value worked out at 19.0 h. Further, the values for the half-life (in data set [3]; in “in vitro”) were 11 min and 258 min, respectively. In data set [4], the logD is -0.44.
As for `COC(=O)n1cnc(C[C@H](NC(=O)[C@@H]2CCC(=O)N2)C(=O)N2CCC[C@H]2C(N)=O)c1` [CH3], the “log k'” value in data set [1] stood at 0.71. Besides, the “Half-lives at 37° C., pH 7.4 buffer” value in data set [2] came out at 9.3 h. Also, the half-life in [3] was 12 min; in the data set “in vitro”, 168 min. The log P (commonly a log measure of how a compound divides between an organic and an aqueous phase) in [4] (octanol / 0.02 M phosphate buffer pH 7.4, 21° C.) was 1.88.
For `CCC(CC)OC(=O)n1cnc(C[C@H](NC(=O)[C@@H]2CCC(=O)N2)C(=O)N2CCC[C@H]2C(N)=O)c1` [CH(C2 H5)2], the logD in [4] was 0.2.
Same read-out and setting: as for `CCCC(CCC)OC(=O)n1cnc(C[C@H](NC(=O)[C@@H]2CCC(=O)N2)C(=O)N2CCC[C@H]2C(N)=O)c1` [CH(C3 H7)2], the figure is 1.2.
Consider `CC(C)OC(=O)n1cnc(C[C@H](NC(=O)[C@@H]2CCC(=O)N2)C(=O)N2CCC[C@H]2C(N)=O)c1` [CH(CH3)2], for which the “log k'” value in [1] came out at 0.96. Besides, the “Half-lives at 37° C., pH 7.4 buffer” value in data set [2] is 35.8 h. Moreover, the half-life is 29 min in [3] and 396 min in “in vitro”. The logD in data set [4] is -0.8.
Regarding `NC(=O)[C@@H]1CCCN1C(=O)[C@H](Cc1cnc[nH]1)NC(=O)[C@@H]1CCC(=O)N1` [TRH, pGlu-L-His-L-ProNH2, reference compound], the “log k'” value in data set [1] is below 0.4. The half-life in [3] (isolated enzyme aminopeptidase, pH 7.4) was 4 min; in the data set “in vitro”, 9 min. For the same compound, the “Half-lives at 37° C., pyroglutamyl aminopeptidase” value in [3] (pH 7.4) worked out at 4 min. Moreover, the “Half-life at 37° C., 80% v/v human plasma” value in the data set “in vitro” amounted to 9 min. The “zero-order rate constant of degradation” value in “in vitro” came out at 7.2e-07 M/min. The compound also had a logD in “physchem” of -2.46. The plasma half-life in data set [5] and in data set [6] was 4 to 6 min throughout.
Consider `CCCCOC(=O)n1cnc(C[C@H](NC(=O)[C@@H]2CCC(=O)N2)C(=O)N2CCC[C@H]2C(N)=O)c1` [n-C4 H9], for which the “log k'” value in data set [1] was 1.07. Also, the “Half-lives at 37° C., pH 7.4 buffer” value in data set [2] is recorded as 19.0 h. In addition, the results for the half-life (in [3]; in “in vitro”) were 11 min and 258 min, respectively. Also, the logD in data set [4] was -0.47.
For `CCCCCCOC(=O)n1cnc(C[C@H](NC(=O)[C@@H]2CCC(=O)N2)C(=O)N2CCC[C@H]2C(N)=O)c1` [n-C6 H13, N-Hexyloxycarbonyl TRH], the “log k'” value in data set [1] is recorded as 1.29. Moreover, the “Half-lives at 37° C., pH 7.4 buffer” value in [2] came out at 17.9 h. Moreover, the values for the half-life (in data set [3]; in the data set “in vitro”) were 8 min and 72 min, respectively. Also, the logD in [4] turned out to be 0.71.
Consider `CCCCCCCCOC(=O)n1cnc(C[C@H](NC(=O)[C@@H]2CCC(=O)N2)C(=O)N2CCC[C@H]2C(N)=O)c1` [n-C8 H17, N-Octyloxycarbonyl TRH], for which the “log k'” value in [1] is recorded as 1.50. The “time for 10% degradation” value in data set [2] (aqueous solution, pH 5.8, 20° C.) was 76 h. Further, the “Half-lives at 37° C., pH 7.4 buffer” value in data set [2] stood at 17.5 h. Moreover, the half-life in data set [3] was 24 min; in the data set “in vitro” it was 30 min. For the same compound, the logD in data set [4] stood at 1.88. The steady-state flux in data set [7] (human skin) was found to be 0.044±0.006 μmol TRH/h/cm^2; in data set [7] (human skin, converted from μmol) it was 16 μg TRH/h/cm^2. Moreover, the flux in [7] (5% prodrug in propylene glycol, human skin) amounted to 3.6 μg/h/cm^2. Besides, the “conversion of applied prodrug to parent TRH during diffusion through skin” value in [7] (human skin samples) is reported as “Essentially all”.

Values taken from US5405834A, “Prodrug derivatives of thyrotropin-releasing hormone (TRH)” (priority 1989, dated 1995).
